Test results published in article PMC4208094, “Optical control of insulin release using a photoswitchable sulfonylurea” (Nature Communications, 2014).

Columns and labels:
SUR1 [1] = molecular target: T1, SUR1 (Rattus norvegicus, UniProt Q09429); test: [3H]-glibenclamide displacement in SUR1-expressing HEK293t cells under illumination; assay type: cell-based; design: gene Abcc8
Target sequence in this assay (Q09429 whole entry): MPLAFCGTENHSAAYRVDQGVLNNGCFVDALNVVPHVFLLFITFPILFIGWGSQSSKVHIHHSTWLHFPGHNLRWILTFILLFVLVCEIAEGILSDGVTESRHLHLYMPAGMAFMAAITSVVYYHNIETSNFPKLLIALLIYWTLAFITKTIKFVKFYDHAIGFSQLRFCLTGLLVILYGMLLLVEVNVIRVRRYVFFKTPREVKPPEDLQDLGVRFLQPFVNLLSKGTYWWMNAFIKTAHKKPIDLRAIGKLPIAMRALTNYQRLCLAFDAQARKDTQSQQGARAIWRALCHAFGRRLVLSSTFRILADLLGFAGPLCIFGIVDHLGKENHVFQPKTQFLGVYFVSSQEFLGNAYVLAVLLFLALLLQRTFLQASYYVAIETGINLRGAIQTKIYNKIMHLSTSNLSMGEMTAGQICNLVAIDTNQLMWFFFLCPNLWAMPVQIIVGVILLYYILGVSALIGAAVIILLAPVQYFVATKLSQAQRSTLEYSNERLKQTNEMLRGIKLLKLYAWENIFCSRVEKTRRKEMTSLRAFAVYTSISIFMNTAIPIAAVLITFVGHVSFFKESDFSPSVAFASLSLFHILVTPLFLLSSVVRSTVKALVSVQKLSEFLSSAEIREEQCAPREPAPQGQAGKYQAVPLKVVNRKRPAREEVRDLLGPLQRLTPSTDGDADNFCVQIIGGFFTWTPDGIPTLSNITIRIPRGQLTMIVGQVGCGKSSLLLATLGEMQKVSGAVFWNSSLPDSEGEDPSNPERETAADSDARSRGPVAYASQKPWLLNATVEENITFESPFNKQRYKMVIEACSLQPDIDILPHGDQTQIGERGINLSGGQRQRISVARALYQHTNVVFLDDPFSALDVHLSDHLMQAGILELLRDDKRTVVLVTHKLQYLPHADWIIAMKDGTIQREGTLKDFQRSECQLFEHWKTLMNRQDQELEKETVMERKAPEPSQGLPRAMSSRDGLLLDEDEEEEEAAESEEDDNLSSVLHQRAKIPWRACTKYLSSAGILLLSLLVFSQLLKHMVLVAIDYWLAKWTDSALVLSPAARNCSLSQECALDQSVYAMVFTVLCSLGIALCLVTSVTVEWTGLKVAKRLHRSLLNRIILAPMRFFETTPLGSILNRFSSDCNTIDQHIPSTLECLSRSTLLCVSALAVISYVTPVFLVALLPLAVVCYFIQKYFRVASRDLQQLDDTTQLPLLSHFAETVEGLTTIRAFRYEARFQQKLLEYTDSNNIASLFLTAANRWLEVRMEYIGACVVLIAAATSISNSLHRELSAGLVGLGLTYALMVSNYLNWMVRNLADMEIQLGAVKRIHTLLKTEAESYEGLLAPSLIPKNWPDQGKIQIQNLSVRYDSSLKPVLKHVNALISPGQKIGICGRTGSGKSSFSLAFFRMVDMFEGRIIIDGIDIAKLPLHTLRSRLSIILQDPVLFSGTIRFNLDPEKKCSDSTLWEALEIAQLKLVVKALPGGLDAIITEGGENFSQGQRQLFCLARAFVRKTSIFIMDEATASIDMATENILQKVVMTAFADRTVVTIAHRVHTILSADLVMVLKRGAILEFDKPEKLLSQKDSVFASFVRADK

SUR1 [2] = molecular target: T1, SUR1; test: whole-cell patch clamp of heterologous KATP channels, […] tolbutamide; assay type: cell-based; design: gene Abcc8; rat SUR1 (Genbank L40624) co-expressed with Kir6.2 in HEK293t cells; with Kir6.2
Target sequence in this assay (Q09429 whole entry): as above
Target sequence in this assay (Q61743 whole entry partner): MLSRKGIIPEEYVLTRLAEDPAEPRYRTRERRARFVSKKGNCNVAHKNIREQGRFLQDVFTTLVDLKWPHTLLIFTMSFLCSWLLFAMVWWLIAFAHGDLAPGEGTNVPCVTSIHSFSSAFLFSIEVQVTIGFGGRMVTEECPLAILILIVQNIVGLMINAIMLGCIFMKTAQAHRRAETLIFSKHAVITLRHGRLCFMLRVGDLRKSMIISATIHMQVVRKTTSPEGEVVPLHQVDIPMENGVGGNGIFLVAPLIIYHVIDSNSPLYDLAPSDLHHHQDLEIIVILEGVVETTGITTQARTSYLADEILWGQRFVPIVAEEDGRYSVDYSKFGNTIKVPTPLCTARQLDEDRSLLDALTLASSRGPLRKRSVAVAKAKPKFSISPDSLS

SMILES: CCN(CC)c1ccc(/N=N\c2ccc(S(=O)(=O)NC(=O)NC3CCCCC3)cc2)cc1 [JB253, (Z)-N-(cyclohexylcarbamoyl)-4-((4-(diethylamino)phenyl)diazenyl)benzenesulfonamide]
- IC50 (SUR1 [1]): 14.8 µM

SMILES: CCCCNC(=O)NS(=O)(=O)c1ccc(C)cc1 [tolbutamide]
- KATP current response (SUR1 [2]): Tolbutamide and diazoxide-sensitive inward-rectifying K^+ currents could be recorded in transfected cells
